For series [1], the system named is human prostate adenocarcinoma PC3 cells. Kind of series: Growth inhibition test (MTS). It is filed as cell-based. The conditions noted are these: PC-3; 72 hours. How it is done: (§1) Two thousand cells of human prostate adenocarcinoma PC3 were inoculated into each well of a 96-well microplate (manufactured by Corning Corp.), and using F12K (Ham's F12:RPMI 8226 1:1) medium (culture medium) containing 10% fetal calf serum (FCS). The same day, a dimethyl sulfoxide (DMSO) solution of each test compound prepared in a concentration of 10 mmol/L was further diluted with DMSO to the desired concentrations (0.1, 0.5, 1, 2.5, 5 and 10 micromol/L), and the diluted solution was added to each well. The individual wells were further cultured in 5% carbon dioxide at 37° C. for 72 hours. After completion of the culture, 10 μl MTS (3-(4,5-Dimethyl-2-thiazolyl)-5-(carboxymethoxyphenyl)-2-(4-sulfophenyl)-2H-tetrazolium, inner salt assay (CellTiter96® AQueous One Solution Cell Proliferation Assay, Promega) was added to each well, and culturing was performed in 5% carbon dioxide at 37° C. for 2 hours. Using a microplate spectrophotometer (Synergy 2 multi-mode microplate reader (BioTek)), the absorbance of each well was measured at 490 nm. The value for cells not incorporated with a test compound was designated as 100%. By comparing these values with the absorbance difference obtained at the well in which each test compound was added, the cell viability (% viability) after treatment with the test compound was calculated.

For series [2], the system named is human acute myeloid leukemia MOLM-13 cells. Kind of series: Growth inhibition test (MTS). The series is classed as cell-based. The conditions noted are these: MOLM13, 72 hours, read-out: Cytotoxicity in MTS assay (ED50). On the procedure: as §1, with “Ten” for “Two”, “acute myeloid leukemia MOLM-13” for “human prostate adenocarcinoma PC3”, “Corp.)” for “Corp.), and”, “RPMI” for “F12K (Ham's F12:RPMI”, “8226” for “8226 1:1)”
(Tetrazolium dyes change colour on reduction, which living cells bring about.)

The target of series [3] is PIM2 (Homo sapiens, UniProt Q9P1W9). Kind of series: Radiometric kinase assay (HotSpot). The conditions noted are these: for Selectivity for Pim-2 over CK2α: ratio of IC50 values.
Description: (§2) Kinase assays were performed at Reaction Biology Corporation (www.reactionbiology.com, Malvern Pa.) using the “HotSpot” assay platform. This assay platform is based on a radiometric filtration binding assay and is considered as the “gold standard” to which non-radiometric methods are compared. In this assay format, the kinase reaction is performed in the presence of 32 P-γ-ATP or 33 P-γ-ATP, followed by binding of the final radioisotope labeled peptide product to filters after which unreacted phosphate is washed away and the levels of phosphorylated peptide are measured.
Series [4] has as its target CK2α (Homo sapiens, UniProt P68400). Kind of series: Radiometric kinase assay (HotSpot).
Description: as §2
Series [5] has as its target PIM3 (Homo sapiens, UniProt Q86V86). Kind of series: Radiometric kinase assay (HotSpot). The following applies: for Selectivity for Pim-3 over CK2α: ratio of IC50 values.
Description: as §2
Series [6] has as its target PIM1 (Homo sapiens, UniProt P11309). Kind of series: Radiometric kinase assay (HotSpot). The conditions noted are these: for Selectivity for Pim-1 over CK2α: ratio of IC50 values.
Description: as §2
In series [7] the target is CLK1 (Homo sapiens, UniProt P49759). Kind of series: Radiometric kinase assay (HotSpot).
Description: as §2
The subject of series [8] is human chronic myelogenous leukemia MEG-01 cells. Kind of series: Growth inhibition test (MTS). The series is classed as cell-based. The following applies: MEG01; 72 hours. How it is done:
as §1, with “Ten” for “Two”, “chronic myelogenous leukemia MEG-01” for “prostate adenocarcinoma PC3”, “Corp.)” for “Corp.), and”, “RPMI” for “F12K (Ham's F12:RPMI”, “8226” for “8226 1:1)”

Series [9] can be described thus: Solubility in pH 7.4. The following applies: phosphate buffer.
Description: Compound stock solutions were prepared in DMSO to final concentrations of 1000 mM. For each compound studied, 12 solutions were prepared to cover concentrations from 0.001 to 1 mM. As a solvent 0.2 mM phosphate buffer (pH 7.4) was used. The final concentration of DMSO in the solutions was 1% (v/v). The solutions were left mixing for 24 hours at 37° C., 350 rpm and following incubation centrifuged for 5 minutes at 14500 rpm. The samples were then analyzed by RP HPLC using a C18 column and 0.2% solution of formic acid in water/acetonitrile mobile phase. […] The solubility was determined as the point as the point at which the concentration curve reaches plateau.
For series [10], the system named is human chronic myelocytic leukemia K562 cells. Kind of series: Growth inhibition test (MTS). The series is classed as cell-based. The following applies: 72 hours. How it is done:
as §1, with “Ten” for “Two”, “chronic myelocytic leukemia K562” for “prostate adenocarcinoma PC3”, “Corp.)” for “Corp.), and”, “Iscove's MDM” for “F12K (Ham's F12:RPMI 8226 1:1)”

[11] abbreviates: read-out: Inhibitory activity (IC50 in nM) in radiometric cell free assay, Pim-2, ATP 1 μM, peptide 5 μM.
The mark [12] stands for this setting: read-out: Inhibitory activity (IC50 in nM) in radiometric cell free assay, CK2α, ATP 1 μM, peptide 20 μM.
Where [13] appears, read: read-out: Inhibitory activity (IC50 in nM) in radiometric cell free assay, Pim-3, ATP 1 μM, peptide 20 μM.
Setting [14] is: read-out: Inhibitory activity (IC50 in nM) in radiometric cell free assay, Pim-1, ATP 1 μM, peptide 5 μM.

In brackets after ≈: the same amount, converted by molar mass. Like-named read-outs stand apart in the source and are kept apart here.

Sequence of PIM1 (P11309 whole entry): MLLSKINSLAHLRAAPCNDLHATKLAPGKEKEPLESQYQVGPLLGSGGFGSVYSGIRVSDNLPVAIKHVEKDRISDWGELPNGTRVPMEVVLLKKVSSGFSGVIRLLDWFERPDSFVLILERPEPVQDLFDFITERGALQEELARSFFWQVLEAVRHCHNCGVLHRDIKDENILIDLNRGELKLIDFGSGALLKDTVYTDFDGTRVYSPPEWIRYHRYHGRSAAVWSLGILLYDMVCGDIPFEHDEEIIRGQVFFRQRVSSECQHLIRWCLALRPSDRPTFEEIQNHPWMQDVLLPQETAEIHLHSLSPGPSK
Sequence of PIM2 (Q9P1W9 whole entry): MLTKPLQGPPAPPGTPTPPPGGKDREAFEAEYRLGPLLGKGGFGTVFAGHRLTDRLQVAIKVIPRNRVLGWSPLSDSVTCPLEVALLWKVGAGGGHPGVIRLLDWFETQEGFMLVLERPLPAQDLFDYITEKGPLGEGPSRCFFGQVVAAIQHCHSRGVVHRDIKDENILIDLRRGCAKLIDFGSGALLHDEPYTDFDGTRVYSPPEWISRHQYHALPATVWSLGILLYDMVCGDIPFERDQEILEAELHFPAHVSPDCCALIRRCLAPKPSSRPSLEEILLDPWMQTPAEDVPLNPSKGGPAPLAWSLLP
Sequence of CK2α (P68400 whole entry): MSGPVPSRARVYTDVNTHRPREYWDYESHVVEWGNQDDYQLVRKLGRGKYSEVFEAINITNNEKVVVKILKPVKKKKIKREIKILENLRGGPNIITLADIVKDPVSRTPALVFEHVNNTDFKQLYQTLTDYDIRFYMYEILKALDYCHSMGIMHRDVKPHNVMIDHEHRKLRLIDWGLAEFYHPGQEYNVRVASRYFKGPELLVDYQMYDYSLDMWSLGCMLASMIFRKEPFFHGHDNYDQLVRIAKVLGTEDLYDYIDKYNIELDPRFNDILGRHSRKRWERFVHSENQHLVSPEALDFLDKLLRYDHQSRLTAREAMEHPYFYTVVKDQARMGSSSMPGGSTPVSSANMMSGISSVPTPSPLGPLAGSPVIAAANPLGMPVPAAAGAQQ
Sequence of CLK1 (P49759 whole entry): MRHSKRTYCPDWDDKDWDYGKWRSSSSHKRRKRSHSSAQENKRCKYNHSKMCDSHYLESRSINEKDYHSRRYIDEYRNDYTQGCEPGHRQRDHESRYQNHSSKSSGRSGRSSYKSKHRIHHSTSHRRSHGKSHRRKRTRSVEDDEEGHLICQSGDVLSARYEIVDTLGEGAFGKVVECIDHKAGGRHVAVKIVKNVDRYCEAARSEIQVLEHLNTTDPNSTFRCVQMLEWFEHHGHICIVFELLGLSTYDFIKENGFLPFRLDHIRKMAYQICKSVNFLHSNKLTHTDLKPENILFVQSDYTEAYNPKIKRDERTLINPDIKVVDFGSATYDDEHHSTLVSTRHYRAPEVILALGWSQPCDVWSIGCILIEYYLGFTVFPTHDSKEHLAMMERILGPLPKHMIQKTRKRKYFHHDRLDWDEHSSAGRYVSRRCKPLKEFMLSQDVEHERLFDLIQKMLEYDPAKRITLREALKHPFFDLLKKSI

As for `Brc1c(Br)c(Br)c2[nH]c(NCCN3CCCCC3)nc2c1Br` [Compound 13, 4,5,6,7-tetrabromo-N-(2-(piperidin-1-yl)ethyl)-1H-benzo[d]imidazol-2-amine], the “Cytotoxicity in MTS assay (ED50)” value in [1] turned out to be 5190 nM; in series [8] it was 4370 nM. In addition, the IC50 is 2180 nM in series [2] (Homo sapiens, MOLM-13); 897 nM in [3]; 2260 nM in series [4]; 60.7 nM in series [5]; 23.1 nM in [6]; 594 nM in [7]. The “Selectivity for Pim-2 over CK2α” value in series [3] stood at 2.5. For the same compound, in series [5], the “Selectivity for Pim-3 over CK2α” value amounted to 37.3. In addition, the “Selectivity for Pim-1 over CK2α” value in [6] amounted to 98.2.

The term solubility denotes how much of the substance goes into solution per volume. Low readings indicate a poorly soluble substance, high ones a readily soluble substance. Regarding `Brc1c(Br)c(Br)c2[nH]c(NCCN3CCCC3)nc2c1Br` [Compound 14, 4,5,6,7-tetrabromo-N-(2-(pyrrolidin-1-yl)ethyl)-1H-benzo[d]imidazol-2-amine], the “Cytotoxicity in MTS assay (ED50)” value came out at 5470 nM in series [1] and 3350 nM in [8]. Also, the IC50 in series [2] (Homo sapiens, MOLM-13) came to 1450 nM; in series [3], 618 nM; in [4], 833 nM; in series [5], 28.2 nM; in series [6] it was 43.8 nM. The “Selectivity for Pim-2 over CK2α” value in series [3] is reported as 1.3. In [9], this compound gave a solubility at 24 h of 31 µM (≈ 16.9 µg/mL). The “Selectivity for Pim-3 over CK2α” value in [5] stood at 29.6. Further, in [6], the “Selectivity for Pim-1 over CK2α” value was found to be 19.0.

As to `Brc1c(Br)c(Br)c2[nH]c(NCCN3CCOCC3)nc2c1Br` [Compound 16, 4,5,6,7-tetrabromo-N-(2-morpholinoethyl)-1H-benzo[d]imidazol-2-amine], the “Cytotoxicity in MTS assay (ED50)” value in [1] is more than 10000 nM. Also, the IC50 turned out to be 4660 nM in series [2] (Homo sapiens, MOLM-13); 3010 nM in series [3]; 6880 nM in [4]; 114 nM in series [5]; 67.7 nM in series [6]. The “Selectivity for Pim-2 over CK2α” value in [3] is 2.3. Besides, the solubility at 24 h in [9] was 23 µM (≈ 12.9 µg/mL). Besides, the “Selectivity for Pim-3 over CK2α” value in series [5] is reported as 60.1. In addition, in [6], the “Selectivity for Pim-1 over CK2α” value turned out to be 101.6.

As to `Brc1c(Br)c(Br)c2[nH]c(N3CCNCC3)nc2c1Br` [Compound 20, 4,5,6,7-tetrabromo-2-(piperazin-1-yl)-1H-benzo[d]imidazole], the “Cytotoxicity in MTS assay (ED50)” value in [1] is 6610 nM; in [10] it was 7250 nM; in series [8], 4490 nM. Besides, the IC50 came out at 1590 nM in series [2] (Homo sapiens, MOLM-13); 326 nM in series [3]; 132 nM in series [4]; 42 nM in series [5]; 76.9 nM in series [6]. Besides, the “Selectivity for Pim-2 over CK2α” value in series [3] is on record as 0.4. Moreover, the “Selectivity for Pim-3 over CK2α” value in [5] came out at 3.1. For the same compound, the “Selectivity for Pim-1 over CK2α” value in series [6] worked out at 1.7.

In the case of `CN1CCN(c2nc3c(Br)c(Br)c(Br)c(Br)c3[nH]2)CC1` [Compound 21, 4,5,6,7-tetrabromo-2-(4-methylpiperazin-1-yl)-1H-benzo[d]imidazole], the “Cytotoxicity in MTS assay (ED50)” value in series [1] is more than 10000 nM. The IC50 in series [2] (Homo sapiens, MOLM-13) was determined as 1610 nM; in series [3], 1690 nM; in series [4], 1830 nM; in [5], 84.1 nM; in series [6], 66.1 nM. Further, in series [3], the “Selectivity for Pim-2 over CK2α” value amounted to 1.1. Further, in series [9], the solubility at 24 h was less than 10 µM. In [5], the “Selectivity for Pim-3 over CK2α” value was 21.7. The “Selectivity for Pim-1 over CK2α” value in series [6] stood at 27.6.

`Brc1c(Br)c(Br)c2c(Br)n[nH]c2c1Br` [Compound K64, reference compound]: the “Cytotoxicity in MTS assay (ED50)” value in series [1], in [10] and in series [8] was more than 10000 nM each time. Further, the IC50 in series [2] was more than 10000 nM; in series [3] (setting [11]) it was 871 nM; in [4] (setting [12]) it was 637 nM; in series [5] (setting [13]), 212 nM; in series [6] (setting [14]), 308 nM. Also, the “Selectivity for Pim-2 over CK2α” value in series [3] is given as 0.7. The “Selectivity for Pim-3 over CK2α” value in series [5] amounted to 3.0. The “Selectivity for Pim-1 over CK2α” value in series [6] turned out to be 2.1.

For the compound `CN(C)c1nc2c(Br)c(Br)c(Br)c(Br)c2n1CC(=O)O` [Compound K66, reference compound], the “Cytotoxicity in MTS assay (ED50)” value in series [1], in series [10] and in [8] was more than 10000 nM throughout. Further, the IC50 in [2] was more than 10000 nM; in series [3] (setting [11]), 954 nM; in series [4] (setting [12]), 206 nM; in series [5] (setting [13]) it was 96.3 nM; in series [6] (setting [14]) it was 194 nM. Besides, the “Selectivity for Pim-2 over CK2α” value in series [3] is 0.2. For the same compound, in series [5], the “Selectivity for Pim-3 over CK2α” value is listed as 2.1. The “Selectivity for Pim-1 over CK2α” value in series [6] was found to be 1.1.

As to `Brc1c(Br)c(Br)c2[nH]nnc2c1Br` [TBB, reference compound], the “Cytotoxicity in MTS assay (ED50)” value in series [1], in series [10] and in [8] was more than 10000 nM in each case. The IC50 was more than 10000 nM in [2], more than 20000 nM in [3] (setting [11]), 269 nM in series [5] (setting [13]) and 1840 nM in series [6] (setting [14]).

On to `Brc1c(Br)c(Br)c2[nH]cnc2c1Br` [TBI, reference compound], for which the “Cytotoxicity in MTS assay (ED50)” value in series [1], in [10] and in series [8] was more than 10000 nM throughout. The IC50 in [2] is 9720 nM; in [3] (setting [11]) it was more than 20000 nM; in series [5] (setting [13]), 2940 nM; in series [6] (setting [14]) it was 1670 nM.

Values taken from US20110230481A2, “DERIVATIVES OF TETRABROMOBENZIMIDAZOLE, A PROCESS FOR THE PREPARATION THEREOF, A PHARMACEUTICAL COMPOSITION COMPRISING THE SAME, A METHOD OF USING THE SAME, A METHOD FOR MODULATING OR REGULATING SERINE/THREONINE KINASES, AND SERINE/THREONINE KINASES MODULATING AGENT” (SELVITA S.A., priority 2009, published 2011).
